How the values were obtained:
rat P2X7 [1] = target: T1, rat P2X7 (Rattus norvegicus (Rat), UniProt Q64663); experiment: Radioligand binding, rat P2X7-1321N1 cell membranes, tracer tritiated A-804598; conditions: rat P2X7-1321N1 membranes; 1 hour at 4° C.; IC50 corrected for tracer concentration and affinity
Experimental: (§1) On the day of the experiment, cell membrane preparations were made according to standard published methods. […] The compound can be prepared as described in the literature. […] The assay was terminated by filtration (GF/B filters pre-soaked with 0.3% PEI) and washed with washing buffer (Tris-HCl 50 mM). The IC50 generated in the binding assay was corrected for tracer concentration and affinity of the tracer to derive at the affinity (Ki) of the test compounds.

P2X7 [2] = target: T2, P2X7 (Homo sapiens (Human), UniProt Q99572); experiment: Ca2+ flux (FLIPR) in 1321N1 cells expressing recombinant human P2X7 channel; type: cell-based; conditions: 250 μM BzATP, Calcium-4 dye
How it was run: (§2)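 1321N1 cells stably expressing P2X7 were loaded with Calcium-4 dye for 60 min in HEPES-buffered saline (pH 7.40, 1 mM CaCl2, 1 mM MgCl2), then preincubated with test compounds for 30 min. Fluorescence change was read 180 s after agonist addition.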

P2X7 [3] = target: T2, P2X7; experiment: Radioligand binding, human P2X7-1321N1 cell membranes, tracer tritiated A-804598; conditions: human P2X7-1321N1 membranes; 1 hour at 4° C.; IC50 corrected for tracer concentration and affinity
Experimental: as §1

rat P2X7 [4] = target: T1, rat P2X7; experiment: Ca2+ flux (FLIPR) in 1321N1 cells expressing recombinant rat P2X7 channel; type: cell-based; conditions: 250 μM BzATP, Calcium-4 dye
How it was run: as §2

P2X7 [5] = target: T2, P2X7; experiment: P2X7 antagonism in human whole blood (IL-1β release, ELISA); type: cell-based; conditions: IL-1β release in human blood, LPS 30 ng/ml + Bz-ATP 1 mM
Experimental: Human blood was collected using a blood donor program. […] Cells were incubated for an additional 1.5 hours.

P2X7 [6] = target: T2, P2X7; experiment: P2X7 antagonism in human PBMCs (IL-1β release, ELISA); type: cell-based; conditions: test compound 10 μM, IL-1β release in human PBMCs, LPS 30 ng/ml + Bz-ATP 0.5 mM, read-out: PBMC 10 μM (% control)
Experimental: Human blood was collected using a blood donor program. […] Cells were incubated for an additional 1.5 hours. […] In Table 2, when the data cell has been left blank, it is intended to mean that the compound was not tested in that assay.

T1 sequence (Q64663 whole entry): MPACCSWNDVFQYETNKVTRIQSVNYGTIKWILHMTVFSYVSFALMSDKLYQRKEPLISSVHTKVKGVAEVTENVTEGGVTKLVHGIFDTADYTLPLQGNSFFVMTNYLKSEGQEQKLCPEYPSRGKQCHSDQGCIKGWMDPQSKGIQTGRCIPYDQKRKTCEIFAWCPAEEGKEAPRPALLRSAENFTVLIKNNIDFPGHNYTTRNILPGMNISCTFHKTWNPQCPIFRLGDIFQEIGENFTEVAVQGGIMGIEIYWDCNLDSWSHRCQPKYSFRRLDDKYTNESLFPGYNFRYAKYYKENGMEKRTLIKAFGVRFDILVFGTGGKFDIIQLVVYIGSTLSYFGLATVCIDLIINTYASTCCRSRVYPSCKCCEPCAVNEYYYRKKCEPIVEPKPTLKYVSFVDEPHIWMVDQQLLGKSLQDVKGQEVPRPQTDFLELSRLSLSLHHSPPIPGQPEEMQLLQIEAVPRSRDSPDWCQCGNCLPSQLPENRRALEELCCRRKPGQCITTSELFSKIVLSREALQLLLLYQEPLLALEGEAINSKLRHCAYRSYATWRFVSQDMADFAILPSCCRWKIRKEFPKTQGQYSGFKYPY
T2 sequence (Q99572 whole entry): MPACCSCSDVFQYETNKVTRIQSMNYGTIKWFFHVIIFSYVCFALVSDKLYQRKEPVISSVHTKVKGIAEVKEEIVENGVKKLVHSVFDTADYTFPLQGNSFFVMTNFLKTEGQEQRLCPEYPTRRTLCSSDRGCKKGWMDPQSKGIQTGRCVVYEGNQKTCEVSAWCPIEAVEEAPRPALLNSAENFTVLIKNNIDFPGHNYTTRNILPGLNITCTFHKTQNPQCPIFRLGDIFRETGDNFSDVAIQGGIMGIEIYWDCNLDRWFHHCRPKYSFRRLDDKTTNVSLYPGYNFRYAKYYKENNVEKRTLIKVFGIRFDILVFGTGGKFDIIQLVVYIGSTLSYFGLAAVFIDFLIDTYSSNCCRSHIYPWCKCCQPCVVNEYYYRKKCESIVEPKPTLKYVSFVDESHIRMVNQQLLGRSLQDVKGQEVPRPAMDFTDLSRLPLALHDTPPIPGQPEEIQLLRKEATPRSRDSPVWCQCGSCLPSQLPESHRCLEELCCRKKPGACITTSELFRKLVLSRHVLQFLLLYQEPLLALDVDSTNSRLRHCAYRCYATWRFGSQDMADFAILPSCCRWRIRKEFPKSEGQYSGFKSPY

| Ki (rat P2X7 [1]) | IC50 (P2X7 [2]) | Ki (P2X7 [3]) | IC50 (rat P2X7 [4]) | IC50 (P2X7 [5]) | remaining activity at 10 µM (P2X7 [6]) | SMILES |
| --- | --- | --- | --- | --- | --- | --- |
| 24 nM | 4.5 nM | 9.5 nM | 2480 nM | 1120 nM | – | O=C(c1cccc(Cl)c1Cl)N1CCc2c(ncnc2-n2nccn2)C1 [Example 107, 7-[(2,3-Dichlorophenyl)carbonyl]-4-(2H-1,2,3-triazol-2-yl)-5,6,7,8-tetrahydropyrido[3,4-d]pyrimidine] |
| – | – | – | – | 1120 nM | – | O=C(c1cccc(Cl)c1Cl)N1CCc2c(ncnc2-n2nccn2)C1 [Example 23, 7-[(2,3-Dichlorophenyl)carbonyl]-4-(2H-1,2,3-triazol-2-yl)-5,6,7,8-tetrahydropyrido[3,4-d]pyrimidine] |
| 57.5 nM | 28.1 nM | 58.9 nM | 5970 nM | 2000 nM | – | O=C(c1cccc(C(F)(F)F)c1Cl)N1CCc2c(ncnc2-c2ccccn2)C1 [Example 12, 7-{[2-Chloro-3-(trifluoromethyl)phenyl]carbonyl}-4-pyridin-2-yl-5,6,7,8-tetrahydropyrido[3,4-d]pyrimidine] |
| 12 nM | 8 nM | 16.4 nM | 1110 nM | 1120 nM | – | Cc1nc2c(c(-c3ccn[nH]3)n1)CCN(C(=O)c1cccc(C(F)(F)F)c1Cl)C2 [Example 33, 7-{[2-Chloro-3-(trifluoromethyl)phenyl]carbonyl}-2-methyl-4-(1H-pyrazol-5-yl)-5,6,7,8-tetrahydropyrido[3,4-d]pyrimidine] |
| – | 26.1 nM | 25.1 nM | 9.9 nM | 630 nM | 13.8% | Cn1ccc(-c2ncnc3c2CCN(C(=O)c2cccc(C(F)(F)F)c2Cl)C3)n1 [Example 19, 7-{[2-Chloro-3-(trifluoromethyl)phenyl]carbonyl}-4-(1-methyl-1H-pyrazol-3-yl)-5,6,7,8-tetrahydropyrido[3,4-d]pyrimidine] |
| 14.5 nM | 20.7 nM | 15.4 nM | 489 nM | 560 nM | – | O=C(c1cccc(Cl)c1Cl)N1CCc2c(ncnc2-c2ccn[nH]2)C1 [Example 7, 7-[(2,3-Dichlorophenyl)carbonyl]-4-(1H-pyrazol-5-yl)-5,6,7,8-tetrahydropyrido[3,4-d]pyrimidine] |
| 3.5 nM | 5.9 nM | 25.1 nM | 338 nM | 1230 nM | -0.2% | O=C(c1ccc(Cl)c(F)c1Cl)N1CCc2c(ncnc2-c2ccn[nH]2)C1 [Example 20, 7-[(2,4-Dichloro-3-fluorophenyl)carbonyl]-4-(1H-pyrazol-5-yl)-5,6,7,8-tetrahydropyrido[3,4-d]pyrimidine] |
| 10 nM | 15.8 nM | 50.1 nM | 158 nM | – | – | O=C(c1cccc(C(F)(F)F)c1Cl)N1CCc2c(ncnc2-c2cscn2)C1 [Example 43, 7-{[2-Chloro-3-(trifluoromethyl)phenyl]carbonyl}-4-(1,3-thiazol-4-yl)-5,6,7,8-tetrahydropyrido[3,4-d]pyrimidine] |
| 61.7 nM | 416 nM | 37.2 nM | > 10000 nM | – | – | O=C(c1cccc(Cl)c1Cl)N1CCc2c(ncnc2-c2ccccn2)C1 [Example 11, 7-[(2,3-Dichlorophenyl)carbonyl]-4-pyridin-2-yl-5,6,7,8-tetrahydropyrido[3,4-d]pyrimidine] |
| 50.1 nM | 31.6 nM | 79.4 nM | 6310 nM | – | – | Cc1c(C(=O)N2CCc3c(ncnc3-c3cnccn3)C2)cccc1C(F)(F)F [Example 15, 7-{[2-Methyl-3-(trifluoromethyl)phenyl]carbonyl}-4-pyrazin-2-yl-5,6,7,8-tetrahydropyrido[3,4-d]pyrimidine] |
| 17.8 nM | 100 nM | 50.1 nM | 25.1 nM | – | – | Cc1nc2c(c(-c3[nH]ncc3C(F)(F)F)n1)CCN(C(=O)c1cccc(C(F)(F)F)c1Cl)C2 [Example 39, 7-{[2-Chloro-3-(trifluoromethyl)phenyl]carbonyl}-2-methyl-4-[4-(trifluoromethyl)-1H-pyrazol-5-yl]-5,6,7,8-tetrahydropyrido[3,4-d]pyrimidine] |
| 12.6 nM | 48.3 nM | 39.8 nM | 269 nM | – | – | Cc1nc2c(c(-c3[nH]ncc3F)n1)CCN(C(=O)c1cccc(C(F)(F)F)c1Cl)C2 [Example 35, 7-{[2-Chloro-3-(trifluoromethyl)phenyl]carbonyl}-4-(4-fluoro-1H-pyrazol-5-yl)-2-methyl-5,6,7,8-tetrahydropyrido[3,4-d]pyrimidine] |

From patent US9096596B2 (Janssen Pharmaceutica NV, priority 2013, dated 2015)
